Results published in patent US11021471B2, “Antibacterial compounds” (FORGE THERAPEUTICS, INC., priority 2017, dated 2021).
In brackets after ≈: the same amount, converted by molar mass.

Key:
E. coli = test: Bacterial susceptibility testing, MIC by broth microdilution (CLSI); type: cell-based; conditions: Escherichia coli, cation adjusted Mueller-Hinton Broth, 35° C., 18-24 h
Description: (§1) Minimal inhibitory concentrations (MIC) were determined by the broth microdilution method in accordance with the Clinical and Laboratory Standards Institute (CLSI) guidelines. In brief, organism suspensions were adjusted to a 0.5 McFarland standard to yield a final inoculum between 3×10^5 and 7×10^5 colony-forming units (CFU)/mL. Drug dilutions and inocula were made in sterile, cation adjusted Mueller-Hinton Broth (Beckton Dickinson). An inoculum volume of 100 μL was added to wells containing 100 μL of broth with 2-fold serial dilutions of drug. All inoculated microdilution trays were incubated in ambient air at 35° C. for 18-24 h. Following incubation, the lowest concentration of the drug that prevented visible growth (OD600 nm<0.05) was recorded as the MIC. Performance of the assay was monitored by the use of laboratory quality-control strains and levofloxacin, a compound with a defined MIC spectrum, in accordance with CLSI guidelines.

S. aureus = test: as above; type: cell-based; conditions: Staphylococcus aureus, cation adjusted Mueller-Hinton Broth, 35° C., 18-24 h
Description: as §1

Row | SMILES | MIC (E. coli) [µg/mL] | MIC (S. aureus) [µg/mL]
1 | CS(=O)(=O)C(Cc1ccc(C#Cc2ccc(CN3CCOCC3)cc2)cc1)c1occc(=O)c1O (stereo not drawn) [Compound 1, 3-hydroxy-2-(1-(methylsulfonyl)-2-(4-((4-(morpholinomethyl)phenyl)ethynyl)phenyl)ethyl)-4H-pyran-4-one] | > 32 | –
2 | O=C(Nc1ccc(C#CC#Cc2ccccc2)cc1)c1occc(=O)c1O [Compound 2, 3-hydroxy-4-oxo-N-(4-(phenylbuta-1,3-diyn-1-yl)phenyl)-4H-pyran-2-carboxamide] | > 32 | –
3 | CS(=O)(=O)NCC(Cc1ccc(-c2ccccc2)cc1)c1occc(=O)c1O (stereo not drawn) [Compound 3, N-(3-([1,1′-biphenyl]-4-yl)-2-(3-hydroxy-4-oxo-4H-pyran-2-yl)propyl)methanesulfonamide] | > 32 | > 32
4 | CS(=O)(=O)CC(Cc1ccc(-c2ccccc2)cc1)c1occc(=O)c1O (stereo not drawn) [Compound 4, 2-(1-([1,1′-biphenyl]-4-yl)-3-(methylsulfonyl)propan-2-yl)-3-hydroxy-4H-pyran-4-one] | > 32 | > 32

Next, values leading:

Row | MIC (E. coli) [µg/mL] | MIC (S. aureus) [µg/mL] | SMILES
5 | > 32 | > 32 | O=c1ccoc(C(CO)Cc2ccc(-c3ccccc3)cc2)c1O (stereo not drawn) [Compound 5, 2-(1-([1,1′-biphenyl]-4-yl)-3-hydroxypropan-2-yl)-3-hydroxy-4H-pyran-4-one]
6 | 8 (≈ 24.9 µM) | 8 (≈ 24.9 µM) | NCC(Cc1ccc(-c2ccccc2)cc1)c1occc(=O)c1O (stereo not drawn) [Compound 6, 2-(1-([1,1′-biphenyl]-4-yl)-3-aminopropan-2-yl)-3-hydroxy-4H-pyran-4-one]
7 | > 32 | > 32 | O=c1ccoc(CN(CCO)c2ccc(-c3ccccc3)cc2)c1O [Compound 7, 2-(([1,1′-biphenyl]-4-yl(2-hydroxyethyl)amino)methyl)-3-hydroxy-4H-pyran-4-one]
